From patent US10450293B2, “Chemokine CXCR4 and CCR5 receptor modulators and uses related thereto” (Emory University, priority 2014, dated 2019) come the findings set out here.

Series [1] has as its system HIV-1 Ba-L. The series can be described thus: HIV-1 MAGI assay, Ba-L (CCR5 / M-tropic). Type of series: cell-based. As to the method:
(§1) Bayesian statistical models were constructed using known CXCR4 and CCR5 active compounds from literature, and these models were used to virtually screen 5 million compounds in the Aldrich Marketplace Select library. The screen yielded 14 compounds of interest that were then tested for their anti-HIV activity for both tropisms in MAGI assay. Two compounds (FIG. 1, compounds 1 and 2) were active against both T and M tropic forms of HIV with IC50 values of ˜20 μM. These initial hits were followed-up by a second round of virtual screening based on similarity and sub-structure searching. Another 24 compounds were purchased from the same database and tested. […] This compound was then subjected to a series of biological evaluations to determine activity profile and confirm mechanism of action.

In series [2] the target is T1, HIV-1 reverse transcriptase (Human immunodeficiency virus type 1 group M subtype B, UniProt P03366). The experiment in a line: STD-NMR binding epitope study, HIV-1 reverse transcriptase. As to conditions: 1 mM compound, 30 ng/ml HIV reverse transcriptase. On the procedure:
(§2) Saturation Transfer Difference Spectroscopy (STD) was used to study the interactions between m7CCR5, HIV-1 reverse transcriptase, CXCR4, and compound 2 disclosed herein. Brandt et al., J Biol Chem. 2002, 277(19):17291-9. […] An on-resonance spectrum is recorded where m7CCR5 is selectively saturated giving rise to compound signals intensities.
(§3) The difference of off-resonance from the on-resonance spectrum results in the STD spectrum indicating proton that are in close contact to the protein surface. Non-binding protons cancelled out. The signal intensities can be quantified indicating the relative distance of the proton. Normalizing the measured STD intensities against the most intense can be expressed as percentages.
Spectra were collected on a 600 MHz Varian equipped with a triple-resonance cryoprobe, and STD spectra were collected with 512 scans at an on-resonance frequency of +0.5 ppm. Panel a) is a ^1H NMR spectrum of compound 2 in 100% deuterated phosphate buffered saline (PBS, pH=7.4). b) STD NMR spectrum of compound 2 in PBS in the absence of protein. c) STD NMR spectrum of 1 mM compound 2 in the presence of 30 ng/ml HIV reverse transcriptase (CalBioChem). d) Binding epitope of compound 2 binding to HIV-RT obtained by integrating the signals from (c).

Series [3] deals with HIV-1 IIIB. The experiment in a line: HIV-1 MAGI assay, IIIB (CXCR4 / T-tropic). It counts as cell-based. On the procedure: as §1
The next series relates to m7CCR5. The series can be described thus: STD-NMR binding epitope study, m7CCR5. Conditions: 1 mM compound, 10 μM m7CCR5. As to the method: as §2, §3
STD binding epitope studies of compound 2 interacting with m7CCR5 (isolated, bacterially-expressed CCR5 construct) is shown in FIG. 2B. […] 100 mM HEPES, 150 mM NaCl, pH=7) in the absence of protein. c) STD NMR spectrum of 1 mM compound 2 in the presence of 10 μM m7CCR5 resolubilized in DDM/DOPC bicelle buffer. d) STDD spectrum of compound 2 binding to m7CCR5 obtained by subtracting (b) from (c). e) STDD binding epitope of compound 2 complexed to m7CCR5 obtained by integrating signals from (d).

Another series concerns the target CXCR4 (Homo sapiens, UniProt P61073). The experiment in a line: STD-NMR binding epitope study, CXCR4 in CHO membrane extracts. Conditions: 1 mM compound, 30% CXCR4-expressing CHO membrane extracts. On the procedure:
as §2, §3
STD binding epitope studes of compound 2 interacting with CXCR4 obtained from Chinese Hamster Ovary (CHO) membrane extracts as shown in FIG. 2C.

The test system of series [4] is HIV-1 IIIB. The series can be described thus: PBMC anti-HIV-1 assay, IIIB (CXCR4). As to conditions: Human immunodeficiency virus 1, IIIB, read-out: PBMC - HIV-1HIB (CXCR4) IC50. It counts as cell-based.
A short description of another series: in vitro. Type of series: cell-based. Conditions: human.
Series [5] deals with T1, HIV-1 reverse transcriptase. The series can be described thus: biochemical. It counts as biochemical.
The test system of the next series is wild type virus. The series can be described thus: organism not typed. It counts as cell-based. As to conditions: read-out: Multi-cycle EC50 (WT).
The target in series [6] is T2, CCR5 (Homo sapiens, UniProt P51681).
T2 construct: expressed in transfected cells; host or cells: HeLa-C14
The experiment in a line: 125I-MIP-1β displacement radio-ligand competition assay. Type of series: binding.

Another series in a line: MAGI toxicity. As to conditions: human, MAGI cells.
A further series in a line: PBMC toxicity. Type of series: cell-based. Conditions: read-out: PBMC - Toxicity TC50.
Series [7] concerns HIV-2 strain that utilized CXCR4 for entry. The experiment in a line: PBMC HIV-2 inhibition assay. It counts as cell-based. The text has this:
Compounds 4 inhibited this HIV-2 strain in PBMC cells in support of the CXCR4-based viral entry inhibition mechanism.

For series [8], the target named is T2, CCR5. The experiment in a line: HeLa-C14:JRFL CD4-dependent cell-cell fusion assay. It counts as cell-based. The text has this: Cell-cell fusion assays measure specifically co-receptor mediated inhibition of gp120-induced fusion in the absence of other viral machinery, and these assays were used to explore the CCR5- and CXCR4-specific antiviral activity. A cell-cell fusion assay was constructed to simulate HIV-1 entry in the absence of other viral machinery. The assay measured fusion of effector cells expressing the JRFL envelope (CCR5-tropic/CD4 dependent) with HeLa-C14 target cells (expressing CD4, CCR5, and CXCR4) using a luciferase readout (FIG. 5A).

The test system of another series is VSV-G pseudovirus. The experiment in a line: microbe, parasite or virus in culture. Type of series: cell-based.
In series [9] the test system is HIV-1 Ba-L. The series can be described thus: PBMC anti-HIV-1 assay, Ba-L (CCR5). Type of series: cell-based. Conditions: Human immunodeficiency virus 1, BAL.
Series [10] concerns NNRTI-resistant viral strain containing the K103N/Y181C mutations. It counts as cell-based.
[11] abbreviates: Human immunodeficiency virus 1, BAL, MAGI, value stated for both tropisms, read-out: IC50 against M tropic HIV in MAGI assay.
[12] abbreviates: Human immunodeficiency virus 1, IIIB, MAGI, value stated for both tropisms, read-out: IC50 against T tropic HIV in MAGI assay.

T2 sequence (P51681 whole entry): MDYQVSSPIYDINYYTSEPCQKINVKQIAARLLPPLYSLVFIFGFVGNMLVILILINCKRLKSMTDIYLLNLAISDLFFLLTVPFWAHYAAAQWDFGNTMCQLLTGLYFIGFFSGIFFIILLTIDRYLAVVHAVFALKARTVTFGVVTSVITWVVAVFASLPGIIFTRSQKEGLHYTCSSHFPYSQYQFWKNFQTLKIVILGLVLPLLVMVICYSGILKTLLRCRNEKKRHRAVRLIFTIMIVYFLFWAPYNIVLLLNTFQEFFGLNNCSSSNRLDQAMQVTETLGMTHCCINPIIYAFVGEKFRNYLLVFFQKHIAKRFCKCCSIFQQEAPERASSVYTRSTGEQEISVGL
Sequence of CXCR4 (P61073 whole entry): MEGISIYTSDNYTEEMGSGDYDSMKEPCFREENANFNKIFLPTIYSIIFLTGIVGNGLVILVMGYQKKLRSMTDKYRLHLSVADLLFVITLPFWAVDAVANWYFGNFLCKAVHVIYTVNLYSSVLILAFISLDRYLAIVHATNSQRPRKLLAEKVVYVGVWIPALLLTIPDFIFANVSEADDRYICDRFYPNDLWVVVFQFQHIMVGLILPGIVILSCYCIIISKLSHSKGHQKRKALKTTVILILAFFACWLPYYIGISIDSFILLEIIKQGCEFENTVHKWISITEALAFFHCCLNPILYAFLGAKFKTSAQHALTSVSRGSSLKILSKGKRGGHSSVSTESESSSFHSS

As a reminder, the IC50 is the concentration needed to halve the response being measured. For `c1ccc(Cc2c[nH]nc2C2CCN(Cc3ccccn3)CC2)cc1` [Compound 2], the IC50 in the series on HIV-1 Ba-L [1] (setting [11]) and with HIV-1 IIIB [3] (setting [12]) was approximately 20 µM in each case. Also, the “interaction with HIV-1 reverse transcriptase (STD NMR)” value in [2] is given as “interacts”. In addition, the “interaction with m7CCR5 (STD NMR)” value in the series with m7CCR5 was “interacts”. For the same compound, on CXCR4, the “interaction with CXCR4 (STD NMR)” value is on record as “interacts”.
As a reminder, the EC50 is the concentration needed to bring the measured effect to its halfway point. Consider `c1ccc(Cc2cn[nH]c2C2CCN(Cc3ccncc3)CC2)cc1` [Compound 4, 4-((4-(4-benzyl-1H-pyrazol-3-yl)piperidin-1-yl)methyl)pyridine], for which the IC50 was 17 µM with HIV-1 Ba-L [1] (Ba-L, M-tropic, read-out: HIV-1 MAGI IC50 Ba-L); 0.8 to 3.8 µM with HIV-1 Ba-L [1] (setting [11]); 3.8 µM in the series with HIV-1 Ba-L [1] (Human immunodeficiency virus 1, BAL, Table 3, read-out: MAGI Assay IC50 CCR5); 3.8 µM in the series with HIV-1 Ba-L [1] (Human immunodeficiency virus 1, BAL, read-out: MAGI - HIV-1Ba-L (CCR5) IC50); 3.75 µM in the series on HIV-1 Ba-L [1] (Human immunodeficiency virus 1, BAL, table of synthesized compounds, read-out: R5-IC50); 0.8 µM with HIV-1 IIIB [3] (Human immunodeficiency virus 1, IIIB, MAGI, Table 3, read-out: MAGI Assay IC50 CXCR4). Besides, the IC50 is 0.8 µM in the series with HIV-1 IIIB [3] (Human immunodeficiency virus 1, IIIB, MAGI, read-out: MAGI - HIV-1HIB (CXCR4) IC50); 0.78 µM in the series with HIV-1 IIIB [3] (Human immunodeficiency virus 1, IIIB, MAGI, table of synthesized compounds, read-out: X4-IC50); 0.8 to 3.8 µM in the series on HIV-1 IIIB [3] (setting [12]); 25 µM in the series with HIV-1 IIIB [3] (IIIB, T-tropic, read-out: HIV-1 MAGI IC50 IIIB); 2.3 µM with HIV-1 IIIB [4]; 9 µM in [5] (read-out: Isolated HIV-RT Inhibition IC50). Moreover, the IC50 was found to be 31 µM in [7] (Human immunodeficiency virus 2, PBMC); 36 µM against CCR5 [8]; 2.3 µM with HIV-1 Ba-L [9]. The CC50 in “in vitro” is more than 200 µM; in the series “MAGI toxicity” (MAGI -Toxicity TC50), more than 300 µM; in “MAGI toxicity” (TC50, table of synthesized compounds), more than 100 µM; in the series “PBMC toxicity”, more than 100 µM. In addition, the “inhibition of isolated HIV-1 reverse transcriptase” value in series [5] (in words) was “inhibited”. Also, the EC50 came out at 0.9 µM in the series with wild type virus and 1.3 µM in the series on VSV-G pseudovirus (Pseudovirus). In addition, the “125I-MIP-1β Displacement” value stood at 38% at 100 μM/ at CCR5 [6] (at 100 μM) and 88% at 1 mM on CCR5 [6] (at 1 mM). The “displacement of 125I-MIP1β chemokine ligand from the receptor” value at CCR5 [6] (in words) was “displaced”. The “inhibition of HIV-2 strain in PBMC cells” value in [7] (in words) is reported as “inhibited”. Moreover, the “inhibition of JRFL envelope / HeLa-C14 cell-cell fusion” value at CCR5 [8] (luciferase readout, in words) is “inhibited fusion”. Also, in the series on VSV-G pseudovirus (in words), the “inhibition of VSV-G pseudovirus” value is listed as “inhibited”.
Regarding “4-((4-(4-benzyl-5-methyl-1H-pyrazol-3-yl)piperidin-1-yl)methyl)-3-chloropyridine”, the IC50 stood at 4.2 µM in the series with HIV-1 Ba-L [1] (table of synthesized compounds, read-out: R5-IC50) and 3.1 µM in the series with HIV-1 IIIB [3] (table of synthesized compounds, read-out: X4-IC50). In the series on MAGI, this compound showed a CC50 of 164 µM.
On to `O=C1Nc2ccc(Cl)cc2[C@@](C#CC2CC2)(C(F)(F)F)O1` [efavirenz], for which the “loss of antiviral activity against K103N/Y181C mutant compared to wild type” value in series [10] was found to be 70 fold.
